Consider 33 compounds from patent US4061645A, “2-Trichloromethyl-5-methylsulfinyl-1,3,4-thiadiazole” (Schering Aktiengesellschaft, priority 1972, dated 1977).

Assay [1] deals with Helminthosporium sativum. The assay can be described thus: Agar test (Example 7), Helminthosporium. The assay is classed as cell-based. Particulars: 10 ppm; 5 days at 22° C; control 100. As for the experimental part:
(§1) The fungicidal action of the agents according to the invention was tested in artificial nutrient media against plant-pathogenic fungi in Petri dishes (agar test). The procedure was to sterilize the medium consisting of 2% malt extract and 1.5% agar-agar powder. Before the solidification of the medium, the active substances were added to it, mixing thoroughly, so that the medium received 10 parts of active substance per million (ppm). After the solidification of the medium, the latter was inoculated with a platinum dropper which contained 100 spores each of the fungi to be tested, and after five days at 22° C, an evaluation was made by measuring the diameter of the colonies in mm.

Assay [2] concerns Stemphylium ilicis. Put plainly: Agar test (Example 7), Stemphylium. The assay is classed as cell-based. Particulars: 10 ppm; 5 days at 22° C; control 100. How it is done:
as §1

In assay [3] the test system is Botrytis cinerea. Put plainly: Agar test (Example 7), Botrytis. The assay is classed as cell-based. Particulars: 10 ppm; 5 days at 22° C; control 100. How it is done: as §1
Assay [4] has as its system Colletotrichum gloeosporioides. Put plainly: Agar test (Example 7), Colletotrichum. The class given is cell-based. Particulars: 10 ppm; 5 days at 22° C; control 100. As for the experimental part: as §1
The subject of assay [5] is Asperqilus niger. The assay can be described thus: Agar test (Example 7), Aspergillus. The assay is classed as cell-based. Particulars: 10 ppm; 5 days at 22° C; control 100. As for the experimental part: as §1
The subject of assay [6] is Rhizoctonia solani. Put plainly: Limit concentration of soil-fungicidal effectiveness, Rhizoctonia solani, infested soil seeded with peas (Example 1). The assay is classed as in vivo. Particulars: soil, 480 h, read-out: Limit concentration of the fungicidal effectiveness. As for the experimental part: Limit concentrations of the soil-fungicidal effectiveness at homogeneous mixture of the products with the infested soil. Basic condition in the evaluation are a sound root formation without fungus necroses and germination of the seed of at least 90% compared with the result obtained in steamed soil. Per concentration there were seeded 25 grains of peas of the variety "Miracle of Kelvedon" (marrow pea) without a waiting period. The cultivation time in the tests was 20 to 23 days at a temperature of 22°-25° C. Four commercial products were included in the test series.
Rhizoctania solani: -- Steamed compost soil was inoculated with mycelium of Rhizoctonia solani.

Assay [7] concerns Pythium ultimum. Put plainly: Pythium ultimum infested compost soil, marrow peas (Example 2). Particulars: for Weight of fresh plant: 3 weeks; for Number of sound peas after 3 wks.: of 25 grains. The class given is in vivo. From the text:
Steamed compost soil was inoculated with mycelium of Pythium ultimum.

Assay [8] deals with Fusarium oxysporum f. callistephi. The assay can be described thus: Fusarium infested compost soil, Callistephus chinesis seedlings (Example 5). The assay is classed as in vivo. Particulars: of 4 seedlings. From the text:
Steamed compost soil was inoculated with a spore suspension of Fusarium oxysporum f. callistephi. After homogeneous mixture of the products with the infested soil, the products were present as 20% powder preparations, and after a waiting period of 8 days, there were set out per concentration 4 seedlings of Callistephus chinesis, master aster "Sun Ray" as host plants.

Setting [9] is: 10 mg active ingr. per liter of soil.
[10] abbreviates: 20 mg active ingr. per liter of soil.
[11] abbreviates: 30 mg active ingr. per liter of soil.
Setting [12] is: 200 mg active ingr. per liter of soil.

Where two headings read alike, the source gives them in different places.

In the case of `CCCCCCS(=O)(=O)c1nnc(C(Cl)(Cl)Cl)s1` [Compound 27, 2-trichloromethyl-5-hexylsulfonyl-1,3,4-thiadiazole], the “diameter of the colonies” value in assay [1], in assay [2], in assay [3], in assay [4] and in assay [5] was 0 mm each time. Further, in assay [6] (20 to 23 days, 22°-25° C), the minimal effective concentration was 25 µg/mL.
Take `CS(=O)(=O)c1nnc(CF)s1` [Compound 34, 2-fluoromethyl-5-methylsulfonyl-1,3,4-thiadiazole]: the minimal effective concentration in assay [6] (20 to 23 days, 22°-25° C) amounted to 30 µg/mL.
Take `CCCCCCS(=O)(=O)c1nnc(C(F)(F)F)s1` [Compound 43, 2-trifluoromethyl-5-hexylsulfonyl-1,3,4-thiadiazole]: the minimal effective concentration in assay [6] (20 to 23 days, 22°-25° C) was 50 µg/mL.
`CCCCC[S+]([O-])c1nnc(C(Cl)Cl)s1` (stereo not shown) [Compound 7, 2-dichloromethyl-5-amylsulfinyl-1,3,4-thiadiazole]: the “diameter of the colonies” value in assay [1] was found to be 0 mm; in assay [2] it was 0 mm; in assay [3] it was 22 mm; in assay [4], 0 mm; in assay [5] it was 0 mm. The minimal effective concentration in assay [6] (20 to 23 days, 22°-25° C) amounted to 50 µg/mL.
In the case of `CCCCCCC[S+]([O-])c1nnc(C(Cl)(Cl)Cl)s1` (stereo not shown) [Compound 13, 2-trichloromethyl-5-heptylsulfinyl-1,3,4-thiadiazole], the “diameter of the colonies” value in assay [1] worked out at 0 mm; in assay [2], 0 mm; in assay [3], 13 mm; in assay [4] it was 0 mm; in assay [5] it was 0 mm. In addition, in assay [6] (20 to 23 days, 22°-25° C), the minimal effective concentration was 200 µg/mL.
Consider `CC(Cl)(Cl)c1nnc(S(C)(=O)=O)s1` [Compound 47, 2-(1,1-dichloroethyl)-5-methylsulfonyl-1,3,4-thiadiazole], for which, in assay [6] (20 to 23 days, 22°-25° C), the minimal effective concentration turned out to be 50 µg/mL.
Consider `CCS(=O)(=O)c1nnc(CBr)s1` [Compound 31, 2-bromomethyl-5-ethylsulfonyl-1,3,4-thiadiazole], for which the minimal effective concentration in assay [6] (20 to 23 days, 22°-25° C) was above 200 µg/mL.
On to `CS(=O)(=O)c1nnc(CCl)s1` [Compound 15, 2-chloromethyl-5-methylsulfonyl-1,3,4-thiadiazole], for which the “Weight of fresh plant” value in assay [7] (setting [9]), in assay [7] (setting [10]) and in assay [7] (setting [11]) was 20 g throughout. For the same compound, the “Number of sound peas after 3 wks.” value in assay [7] (setting [9]) came to 22; in assay [7] (setting [10]), 23; in assay [7] (setting [11]), 24. For the same compound, the minimal effective concentration in assay [6] (20 to 23 days, 22°-25° C) stood at 100 µg/mL.
For `CC(C)S(=O)(=O)c1nnc(C(Cl)(Cl)Cl)s1` [Compound 24, 2-trichloromethyl-5-isopropylsulfonyl-1,3,4-thiadiazole], the “diameter of the colonies” value in assay [1], in assay [2], in assay [3], in assay [4] and in assay [5] was 0 mm in each case. The minimal effective concentration in assay [6] (20 to 23 days, 22°-25° C) amounted to 30 µg/mL.
With `CC(C)[S+]([O-])c1nnc(C(Cl)Cl)s1` (stereo not shown) [Compound 6, 2-dichloromethyl-5-isopropylsulfinyl-1,3,4-thiadiazole], the minimal effective concentration in assay [6] (20 to 23 days, 22°-25° C) was found to be 50 µg/mL.
On the same count and under the same terms, then `CC(C)S(=O)(=O)c1nnc(C(F)(F)F)s1` [Compound 41, 2-trifluoromethyl-5-isopropylsulfonyl-1,3,4-thiadiazole], with 20 µg/mL.
The same measure, in the same setting: to `CC(C)C[S+]([O-])c1nnc(C(F)(F)F)s1` (stereo not shown) [Compound 37, 2-trifluoromethyl-5-isobutylsulfinyl-1,3,4-thiadiazole] belongs 100 µg/mL.
For `CCC(Cl)c1nnc([S+](C)[O-])s1` (stereo not shown) [Compound 48, 2-(1-chloropropyl)-5-methylsulfinyl-1,3,4-thiadiazole], the minimal effective concentration in assay [6] (20 to 23 days, 22°-25° C) was determined as 100 µg/mL.
For `CS(=O)(=O)c1nnc(C(F)(F)C(F)(F)C(F)(F)F)s1` [Compound 46, 2-heptafluoropropyl-5-methylsulfonyl-1,3,4-thiadiazole], the minimal effective concentration in assay [6] amounted to 100 µg/mL.
Turning to `CS(=O)(=O)c1nnc(CBr)s1` [Compound 30, 2-bromomethyl-5-methylsulfonyl-1,3,4-thiadiazole], the results for the “Weight of fresh plant” value in assay [7] (setting [9]), in assay [7] (setting [10]) and in assay [7] (setting [11]) were 18 g, 24 g and 18 g, respectively. For the same compound, the “Number of sound peas after 3 wks.” value in assay [7] (setting [9]) came out at 21; in assay [7] (setting [10]) it was 24; in assay [7] (setting [11]), 22. For the same compound, the minimal effective concentration in assay [6] (20 to 23 days, 22°-25° C) turned out to be 150 µg/mL.
For the compound `CC(C)C(Br)c1nnc(S(C)(=O)=O)s1` (stereo not shown) [Compound 51, 2-(1-bromisobutyl)-5-methylsulfonyl-1,3,4-thiadiazole], the minimal effective concentration in assay [6] (20 to 23 days, 22°-25° C) was determined as 50 µg/mL.
Take `CCCCCCCS(=O)(=O)c1nnc(C(F)(F)F)s1` [Compound 44, 2-trifluoromethyl-5-heptylsulfonyl-1,3,4-thiadiazole]: the minimal effective concentration in assay [6] (20 to 23 days, 22°-25° C) turned out to be 50 µg/mL.
Consider `C[S+]([O-])c1nnc(C(F)(F)F)s1` (stereo not shown) [Compound 35, 2-trifluoromethyl-5-methylsulfinyl-1,3,4-thiadiazole], for which the minimal effective concentration in assay [6] (20 to 23 days, 22°-25° C) stood at 20 µg/mL.
In the case of `O=C1C2CC=CCC2C(=O)N1SC(Cl)(Cl)Cl` (stereo not shown) [N-(trichloromethylthio)-cyclohex-4-ene-1,2-dicarboximide, reference compound], the “Weight of fresh plant” value in assay [7] (setting [12]) is 6 g. The “Number of sound peas after 3 wks.” value in assay [7] (setting [12]) came to 13. Besides, the “Number of attacked plants after 3 weeks” value in assay [8] (50 mg active ingredient per liter of soil), in assay [8] (100 mg active ingredient per liter of soil) and in assay [8] (200 mg active ingredient per liter of soil) was 4 in each case. The minimal effective concentration in assay [6] was 300 µg/mL.
In the case of `CC[S+]([O-])c1nnc(C(F)(F)F)s1` (stereo not shown) [Compound 36, 2-trifluoromethyl-5-ethylsulfinyl-1,3,4-thiadiazole], the minimal effective concentration in assay [6] (20 to 23 days, 22°-25° C) was found to be 20 µg/mL.
Turning to `CS(=O)(=O)c1nnc(C(F)(F)C(F)(F)F)s1` [Compound 45, 2-pentafluoroethyl-5-methylsulfonyl-1,3,4-thiadiazole], the minimal effective concentration in assay [6] (20 to 23 days, 22°-25° C) was above 100 µg/mL.
On to `CC(C)S(=O)(=O)c1nnc(C(Cl)Cl)s1` [Compound 20, 2-dichloromethyl-5-isopropylsulfonyl-1,3,4-thiadiazole], for which the minimal effective concentration in assay [6] (20 to 23 days, 22°-25° C) worked out at 50 µg/mL.
Still for that read-out and setting: to `CCCCC[S+]([O-])c1nnc(C(F)(F)F)s1` (stereo not shown) [Compound 38, 2-trifluoromethyl-5-pentylsulfinyl-1,3,4-thiadiazole] belongs 40 µg/mL.
Still for that read-out and setting: to `CC(C)CS(=O)(=O)c1nnc(C(F)(F)F)s1` [Compound 42, 2-trifluoromethyl-5-isobutylsulfonyl-1,3,4-thiadiazole] belongs 100 µg/mL.
Still for that read-out and setting: then `C[S+]([O-])c1nnc(CCl)s1` (stereo not shown) [Compound 2, 2-chloromethyl-5-methylsulfinyl-1,3,4-thiadiazole], with 50 µg/mL; and `CCCCCC[S+]([O-])c1nnc(C(F)(F)F)s1` (stereo not shown) [Compound 39, 2-trifluoromethyl-5-hexylsulfinyl-1,3,4-thiadiazole], with 40 µg/mL.
In the case of `CC(C)S(=O)(=O)c1nnc(CCl)s1` [Compound 16, 2-chloromethyl-5-isopropylsulfonyl-1,3,4-thiadiazole], in assay [6] (20 to 23 days, 22°-25° C), the minimal effective concentration is 200 µg/mL.
On to `CCC(Cl)c1nnc(S(C)(=O)=O)s1` (stereo not shown) [Compound 49, 2-(1-chloropropyl)-5-methylsulfonyl-1,3,4-thiadiazole], for which, in assay [6] (20 to 23 days, 22°-25° C), the minimal effective concentration is 50 µg/mL.
Still for that read-out and setting: to `CC(C)[S+]([O-])c1nnc(C(Cl)(Cl)Cl)s1` (stereo not shown) [Compound 11, 2-trichloromethyl-5-isopropylsulfinyl-1,3,4-thiadiazole] belongs 50 µg/mL.
The same measure, in the same setting: to `CCS(=O)(=O)c1nnc(C(F)(F)F)s1` [Compound 40, 2-trifluoromethyl-5-ethylsulfonyl-1,3,4-thiadiazole] belongs 20 µg/mL; to `CCCCCCCC[S+]([O-])c1nnc(C(Cl)(Cl)Cl)s1` (stereo not shown) [Compound 14, 2-trichloromethyl-5-octylsulfinyl-1,3,4-thiadiazole], 100 µg/mL.
Consider `CC(Br)c1nnc(S(C)(=O)=O)s1` (stereo not shown) [Compound 50, 2-(1-bromoethyl)-5-methylsulfonyl-1,3,4-thiadiazole], for which the minimal effective concentration in assay [6] (20 to 23 days, 22°-25° C) was determined as 100 µg/mL.
On the same count and under the same terms, then `C[S+]([O-])c1nnc(CF)s1` (stereo not shown) [Compound 33, 2-fluoromethyl-5-methylsulfinyl-1,3,4-thiadiazole], with 20 µg/mL.
